Measurements from patent US7417053B2, “Pyrazolo[1,5-a]pyridine derivatives or pharmaceutically acceptable salts thereof” (Teijin Pharma Limited, priority 2005, dated 2008).
Where a name gives a salt, the structure may show the parent alone.

Target: recombinant human MAPKAP-K2 (Homo sapiens, UniProt P49137)
Test: Inhibitory activity against MAPKAP-K2 enzyme (33P-ATP peptide phosphorylation)
Format: biochemical
Conditions: recombinant human MAPKAP-K2, ATP 20 μmol/L solution, room temperature 30 min; read-out: Activity Strength (MAPKAP-K2 IC50 value)
Experimental: General Measurement Method for Determining the Inhibitory Activity Against MAPKAP-K2 enzyme
(Preparation of Solutions of Compounds)
Each compound was dissolved in DMSO to prepare a solution with a concentration of 20 mmol/L and this solution was stored at −20° C. This stock solution was diluted with DMSO successively to prepare solutions with 200-fold concentrations of a necessary range. These solutions were further diluted with water at a ratio of 1:20 to prepare solutions with 10-fold concentrations of a necessary range. Each of these solutions (5 μL) was used for each reaction in 50 μL-scale. Through the dilution series of all compounds, the final DMSO concentration was kept at 0.5%. Conventional tests for the compounds were carried out at a final concentration range from 100 μmol/L to 0.03 μmol/L. but in some cases, tests were carried out at lower concentrations, depending on activity.
(Measurements of MAPKAP-K2 Enzyme Activities)
To a 5% DMSO aqueous solution (5 μL) of a test compound, a solution (25 μL) containing a peptide substrate [peptide substrate 60 μmol/L, ATP 20 μmol/L, Tris buffer 60 mmol/L (pH 7.5), EGTA 0.2 mmol/L, β-mercaptoethanol 0.2%, magnesium acetate 20 mmol/L, [γ-33P]ATP 0.1 μCi (specific radioactivity ca. 110 TBq/mmol)] was added. The reaction was initiated by adding a solution (20 μL) containing MAPKAP-K2 enzyme [recombinant human MAPKAP-K2 10 mU, Tris buffer […] (pH 7.5), EGTA 0.1 mmol/L, β-mercaptoethanol 0.1%, BSA 0.1%]. After the reaction was carried out at room temperature for 30 min, 200 mmol/L phosphoric acid (50 μL) was added to quench the reaction, and 90 μL of the reaction mixture was adsorbed on a multiscreen PH plate (Millipore). The plate was washed with 100 mmol/L phosphoric acid. After the plate was dried, 30 μL of MicroScint-O (Perkin-Elmer) was added, and the count per minute was measured on a scintillation counter to determine the inhibitory activity. The peptide substrate was Lys-Lys-Leu-Asn-Arg-Thr-Leu-Ser-Val-Ala.
• % Reference=(X−B)/(Tot−B)×100 • % Inhibition=100−% Reference • X represents count per minute of the well with a test compound applied. • B represents count per minute of the well without the enzyme. • Tot represents count per minute of the well with only DMSO solvent and no test compound applied. (Calculation of MAPKAP-K2 Inhibitory Activity) • IC50 value represents a concentration of compound at which 50% inhibition is observed.

recombinant human MAPKAP-K2, sequence (P49137 whole entry): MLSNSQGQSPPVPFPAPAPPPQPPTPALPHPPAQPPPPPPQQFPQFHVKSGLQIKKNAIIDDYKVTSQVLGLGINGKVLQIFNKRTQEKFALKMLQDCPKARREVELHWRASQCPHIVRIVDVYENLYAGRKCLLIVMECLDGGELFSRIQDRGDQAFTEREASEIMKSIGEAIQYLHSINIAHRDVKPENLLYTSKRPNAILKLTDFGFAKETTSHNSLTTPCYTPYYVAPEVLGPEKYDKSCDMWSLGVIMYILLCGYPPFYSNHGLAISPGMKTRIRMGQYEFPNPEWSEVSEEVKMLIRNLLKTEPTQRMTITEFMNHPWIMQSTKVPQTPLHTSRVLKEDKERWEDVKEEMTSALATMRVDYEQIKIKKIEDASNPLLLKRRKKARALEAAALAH

| Compound | IC50 [nM] |
| --- | --- |
| CSc1ccccc1Nc1cc(N[C@H]2CC[C@H](N)CC2)c(C#N)c2ccnn12 [Compound 99, 5-(trans-4-Aminocyclohexylamino)-7-(2-methylthiophenylamino)pyrazolo[1,5-a]pyridine-4-carbonitrile trifluoroacetate salt] | 1000 to 10000 |
| CCOc1ccc(Nc2c(C)c(NCCC3CCCN3)c(C#N)c3ccnn23)cc1 (stereo not shown) [Compound 129, 7-[1(4-Ethoxyphenyl)amino]-6-methyl-5-[2-(pyrrolidin-2-ylethyl)amino]pyrazolo[1,5-a]pyridine-4-carbonitrile trifluoroacetate salt] | 1000 to 10000 |
| N#Cc1c(N[C@H]2CCCNC2)cc(Nc2ccccc2Cl)n2nccc12 [Compound 93, 5-[(3S)-3-Piperidylamino]-7-(2-chlorophenylamino)pyrazolo[1,5-a]pyridine-4-carbonitrile trifluoroacetate salt] | 200 to 1000 |
| CCOc1ccc(Nc2c(C)c(N[C@H]3CC[C@H](NCCCc4ccccc4)CC3)c(C#N)c3ccnn23)cc1 [Compound 116, 7-[(4-Ethoxyphenyl)amino]-6-methyl-5-({trans-4-[(3-phenylpropyl)amino]cyclohexyl}amino)pyrazolo[1,5-a]pyridine-4-carbonitrile trifluoroacetate salt] | 200 to 1000 |
| CCOc1ccc(Nc2c(C)c(N[C@H]3CC[C@H](N)CC3)c(C#N)c3ccnn23)cc1 [Compound 102, 5-[(trans-4-Aminocyclohexyl)amino]-7-(4-ethoxyphenylamino)-6-methylpyrazolo[1,5-a]pyridine-4-carbonitrile trifluoroacetate salt] | < 200 |
| Cc1c(N[C@H]2CCCNC2)c(C#N)c2ccnn2c1Nc1ccc2ncsc2c1 [Compound 117, 5-[((3S)-3-Piperidyl)amino]-7-(benzothiazol-6-ylamino)-6-methylpyrazolo[1,5-a]pyridine-4-carbonitrile trifluoroacetate salt] | < 200 |
| Cc1nc2ccc(Nc3cc(N[C@H]4CC[C@H](N)CC4)c(C#N)c4ccnn34)cc2s1 [Compound 96, 5-(trans-4-Aminocyclohexylamino)-7-(2-methylbenzothiazol-6-ylamino)pyrazolo[1,5-a]pyridine-4-carbonitrile trifluoroacetate salt] | 200 to 1000 |
| N#Cc1c(N[C@H]2CC[C@H](N)CC2)cc(Nc2ccccc2Cl)n2nccc12 [Compound 94, 5-(trans-4-Aminocyclohexylamino)-7-(2-chlorophenylamino)pyrazolo[1,5-a]pyridine-4-carbonitrile trifluoroacetate salt] | 200 to 1000 |
| CCOc1ccc(Nc2c(C)c(NC3CCCC(N)C3)c(C#N)c3ccnn23)cc1 (stereo not shown) [Compound 104, 5-[(3-Aminocyclohexyl)amino]-7-[(4-ethoxyphenyl)amino]-6-methylpyrazolo[1,5-a]pyridine-4-carbonitrile trifluoroacetate salt] | 1000 to 10000 |
| CCOc1ccc(Nc2c(C(C)C)c(N[C@H]3CCCNC3)c(C#N)c3ccnn23)cc1 [Compound 123, 5-[(3S)-3-Piperidylamino]-7-(4-ethoxyphenylamino)-6-(methylethyl)pyrazolo[1,5-a]pyridine-4-carbonitrile] | < 200 |
| CCOc1ccc(Nc2c(CC)c(N[C@H]3CCCNC3)c(C#N)c3ccnn23)cc1 [Compound 105, 5-[(3S)-3-Piperidylamino]-7-(4-ethoxyphenylamino)-6-ethylpyrazolo [1,5-a]pyridine-4-carbonitrile] | < 200 |
| CCOc1ccc(Nc2cc(N[C@H]3CCCNC3)c(C#N)c3ccnn23)cc1 [Compound 92, 5-[(3S)-3-Piperidylamino]-7-(4-ethoxyphenylamino)pyrazolo[1,5-a]pyridine-4-carbonitrile trifluoroacetate salt] | 200 to 1000 |
| C=CCc1c(N[C@H]2CCCNC2)c(C#N)c2ccnn2c1Nc1ccc(OCC)cc1 [Compound 86, 5-[(3S)-3-Piperidylamino]-7-(4-ethoxyphenylamino)-6-(2-propenyl)pyrazolo[1,5-a]pyridine-4-carbonitrile trifluoroacetate salt] | < 200 |
| CCOc1ccc(Nc2c(C)c(N[C@H]3CC[C@H](NCCc4ccccc4)CC3)c(C#N)c3ccnn23)cc1 [Compound 125, 7-[(4-Ethoxyphenyl)amino]-6-methyl-5-(trans-{4-[(2-phenylethyl)amino]cyclohexyl}amino]pyrazolo[1,5-a]pyridine-4-carbonitrile trifluoroacetate salt] | 200 to 1000 |
| CCOc1ccc(Nc2c(C)c(NCC3CCCNC3)c(C#N)c3ccnn23)cc1 (stereo not shown) [Compound 128, 7-[(4-Ethoxyphenyl)amino]-6-methyl-5-[(3-piperidylmethyl)amino]pyrazolo[1,5-a]pyridine-4-carbonitrile trifluoroacetate salt] | 1000 to 10000 |
| CCOc1ccc(Nc2c(C)c(NCCCN)c(C#N)c3ccnn23)cc1 [Compound 107, 5-[(3-Aminopropyl)amino]-7-[(4-ethoxyphenyl)amino]-6-methylpyrazolo[1,5-a]pyridine-4-carbonitrile trifluoroacetate salt] | 200 to 1000 |
| CCOc1ccc(Nc2c(C)c(NCCCCCCN)c(C#N)c3ccnn23)cc1 [Compound 132, 5-[(6-Amionohexyl)amino]-7-[(4-ethoxyphenyl)amino]-6-methylpyrazolo[1,5-a]pyridine-4-carbonitrile trifluoroacetate salt] | 10000 to 100000 |
| Cc1nc2ccc(Nc3c(C)c(N[C@H]4CCCNC4)c(C#N)c4ccnn34)cc2s1 [Compound 91, 5-[(3S)-3-Piperidylamino]-7-(2-methylbenzothiazol-6-ylamino)-6-methylpyrazolo[1,5-a]pyridine-4-carbonitrile] | < 200 |
| N#Cc1c(N[C@H]2CCCNC2)cc(Nc2ccc(-c3ccccc3)cc2)n2nccc12 [Compound 100, 5-[(3S)-3-Piperidylamino]-7-(4-biphenylylamino)pyrazolo[1,5-a]pyridine-4-carbonitrile trifluoroacetate salt] | 200 to 1000 |
| CCc1nc2ccc(Nc3c(C)c(N[C@H]4CCCNC4)c(C#N)c4ccnn34)cc2s1 [Compound 118, 5-[((3S)-3-Piperidyl)amino]-7-[(2-ethylbenzothiazol-6-yl)amino]-6-methylpyrazolo[1,5-a]pyridine-4-carbonitrile trifluoroacetate salt] | < 200 |
| CCOc1ccc(Nc2c(C)c(NCC3CCCN3)c(C#N)c3ccnn23)cc1 (stereo not shown) [Compound 114, 7-[(4-Ethoxyphenyl)amino]-6-methyl-5-[(pyrrolidin-2-ylmethyl)amino]pyrazolo[1,5-a]pyridine-4-carbonitrile trifluoroacetate salt] | 1000 to 10000 |
| CCOc1ccc(Nc2c(C)c(N[C@H]3CC[C@H](NCC(C)C)CC3)c(C#N)c3ccnn23)cc1 [Compound 110, 7-[(4-Ethoxyphenyl)amino]-6-methyl-5-(trans-{4-[(2-methylpropyl)amino]cyclohexyl}amino)pyrazolo[1,5-a]pyridine-4-carbonitrile trifluoroacetate salt] | < 200 |
